In the assay the test system is HCV pseudoparticles (genotype 1a HCV E1 and E2 envelope, H77C isolate). Nature of the assay: HCV pseudoparticle infection assay (genotype 1a, luciferase reporter, Huh7 cells). Type of assay: cell-based. The following applies: Hepatitis C virus, Huh-7, 48 h, read-out: EC50 (1a, nM), HCV genotype 1a pseudoparticles, Huh7 cells, luciferase 2 days after infection. (In general: A reporter such as luciferase makes a cellular process visible.)

Read-outs that look alike come from different tables or passages of the source.

Regarding `C[N+](C)(C)CCNC(=O)c1ccc(Nc2nc(NC3(c4ccc(Cl)cc4)CC3)nc(OCC(F)(F)F)n2)cc1` [Compound 1001, 2-(4-(4-(1-(4-chlorophenyl)cyclopropylamino)-6-(2,2,2-trifluoroethoxy)-1,3,5-triazin-2-ylamino)benzamido)-N,N,N-trimethylethanaminium], under “class symbol”, the EC50 was in the range of 0.01 to 10 nM. On the same count and under the same terms, under `[2H]C([2H])(Oc1nc(Nc2ccc(C(=O)NCC[N+](C)(C)C)cc2)nc(NC2(c3ccc(Cl)cc3)CC2)n1)C(F)(F)F` [Compound 1002, 2-(4-(4-(1-(4-chlorophenyl)cyclopropylamino)-6-(2,2,2-trifluoroethoxy-D2)-1,3,5-triazin-2-ylamino)benzamido)-N,N,N-trimethylethanaminium] stands 0.01 to 10 nM. For the molecule `C[N+](C)(C)CC(=O)NNC(=O)c1ccc(Nc2nc(NC3(c4ccc(Cl)cc4)CC3)nc(OCC(F)(F)F)n2)cc1` [Compound 1003, 2-(2-(4-(4-(1-(4-chlorophenyl)cyclopropylamino)-6-(2,2,2-trifluoroethoxy)-1,3,5-triazin-2-ylamino)benzoyl)hydrazinyl)-N,N,N-trimethyl-2-oxoethanaminium], the EC50 reads like this: (class symbol) 10 to 1000 nM; (numeric value) 64.1 nM. With `C[N+](C)(C)CCCNC(=O)c1ccc(Nc2nc(NC3(c4ccc(Cl)cc4)CC3)nc(OCC(F)(F)F)n2)cc1` [Compound 1004, 3-(4-(4-(1-(4-chlorophenyl)cyclopropylamino)-6-(2,2,2-trifluoroethoxy)-1,3,5-triazin-2-ylamino)benzamido)-N,N,N-trimethylpropan-1-aminium], the EC50 (class symbol) is 0.01 to 10 nM. Consider `C[N+](C)(C)CCCC[C@H](NC(=O)c1ccc(Nc2nc(NC3(c4ccc(Cl)cc4)CC3)nc(OCC(F)(F)F)n2)cc1)C(=O)O` [Compound 1005, (S)-5-carboxy-5-(4-(4-(1-(4-chlorophenyl)cyclopropylamino)-6-(2,2,2-trifluoroethoxy)-1,3,5-triazin-2-ylamino)benzamido)-N,N,N-trimethylpentan-1-aminium], for which the EC50 (class symbol) was 0.01 to 10 nM.

Turning to `CC(C)(CNC(=O)c1ccc(Nc2nc(NC3(c4ccc(Cl)cc4)CC3)nc(OCC(F)(F)F)n2)cc1)C[N+](C)(C)C` [Compound 1006, 3-(4-(4-(1-(4-chlorophenyl)cyclopropylamino)-6-(2,2,2-trifluoroethoxy)-1,3,5-triazin-2-ylamino)benzamido)-N,N,N,2,2-pentamethylpropan-1-aminium], the EC50 (class symbol) lay in the range of 0.01 to 10 nM and the EC50 (numeric value) was found to be 0.115 nM.

In the case of `C[N+](C)(C)CCNC(=O)c1ccc2cc1OCCCCCCCCOc1ccc(cc1)CNc1nc(nc(OCC(F)(F)F)n1)N2` [Compound 2001], the EC50 (class symbol) lay in the range of 0.01 to 10 nM. As for `C[N+](C)(C)CCNC(=O)c1ccc2cc1OCCCCCCOc1ccc(cc1)CNc1nc(nc(OCC(F)(F)F)n1)N2` [Compound 3001], the EC50 (class symbol) is 0.01 to 10 nM. Same read-out and setting: under `C[N+](C)(C)CCCNC(=O)c1ccc2cc1OCCCCCCOc1ccc(cc1)CNc1nc(nc(OCC(F)(F)F)n1)N2` [Compound 3002] stands 10 to 1000 nM. For `CC(C)(CNC(=O)c1ccc2cc1OCCCCCCOc1ccc(cc1)CNc1nc(nc(OCC(F)(F)F)n1)N2)C[N+](C)(C)C` [Compound 3003], the EC50 (class symbol) fell in the range of 0.01 to 10 nM and the EC50 (numeric value) amounted to 7.51 nM. For the molecule `C[N+](C)(C)CCNC(=O)c1ccc2cc1OCCOCCOCCOc1ccc(cc1)CNc1nc(nc(OCC(F)(F)F)n1)N2` [Compound 4001], the EC50 (class symbol) lay in the range of 0.01 to 10 nM.

Usually EC50 stands for the midpoint of the concentration-response curve.
